Reference: the NIST ThermoML archive (doi:10.1021/acs.jced.5b00018)

Legend:
[1] = refractive index (Na D-line) (dimensionless); wn = mass fraction of the nth substance listed; conditions: 100 kPa, Liquid, Standard Abbe refractometry
[2] = refractive index (Na D-line) (dimensionless); conditions: 100 kPa, Liquid, Standard Abbe refractometry

O [water] + [Cl-].[Na+]
[1], w2 = 0
Conditions	refractive index
293.15 K	1.3335
298.15 K	1.333
303.15 K	1.3323
308.15 K	1.332
313.15 K	1.3316
318.15 K	1.3312

CCOC(C)=O [ethyl acetate] + O
refractive index, [1]
Conditions	293.15 K	298.15 K	303.15 K	308.15 K	313.15 K	318.15 K
w1 = 0.009	1.3341	1.3335	1.3331	1.3327	1.3321	1.3317
w1 = 0.027	1.3352	1.3348	1.3342	1.3337	1.3332	1.3326
w1 = 0.045	1.3368	1.3364	1.3358	1.3353	1.3346	1.3342
w1 = 0.064	1.3384	1.338	1.3377	1.3368	1.3358	1.3352
w1 = 0.082	1.3391	1.3388	1.3383	1.3378	1.3373	1.3365

O [water] + CCOC(C)=O
[1], w2 = 0
Conditions	refractive index
293.15 K	1.3335
298.15 K	1.333
303.15 K	1.3323
308.15 K	1.332
313.15 K	1.3316
318.15 K	1.3312

[Cl-].[K+] [potassium chloride] + O
refractive index, [1]
Conditions	293.15 K	298.15 K	303.15 K	308.15 K	313.15 K	318.15 K
w1 = 0.01	1.3349	1.3345	1.334	1.3335	1.333	1.332
w1 = 0.05	1.3405	1.3401	1.3396	1.339	1.3384	1.3379
w1 = 0.1	1.3486	1.348	1.3476	1.347	1.3464	1.346
w1 = 0.15	1.3577	1.3571	1.3566	1.356	1.3554	1.355

O [water] + OC[C@H]1O[C@H](O)[C@H](O)[C@@H](O)[C@@H]1O
[1], w2 = 0
Conditions	refractive index
293.15 K	1.3335
298.15 K	1.333
303.15 K	1.3323
308.15 K	1.332
313.15 K	1.3316
318.15 K	1.3312

[Cl-].[Na+] [sodium chloride] + O
refractive index, [1]
Conditions	293.15 K	298.15 K	303.15 K	308.15 K	313.15 K	318.15 K
w1 = 0.01	1.3365	1.3359	1.3354	1.3346	1.3339	1.3333
w1 = 0.05	1.3434	1.3428	1.3422	1.3414	1.3407	1.3398
w1 = 0.1	1.3521	1.3514	1.3508	1.3502	1.3495	1.3485
w1 = 0.15	1.361	1.3604	1.3596	1.359	1.358	1.3572
w1 = 0.2	1.3702	1.3692	1.3683	1.3678	1.367	1.3661
w1 = 0.25	1.3795	1.3788	1.378	1.3773	1.3767	1.3757

OC[C@H]1O[C@H](O)[C@H](O)[C@@H](O)[C@@H]1O [α-D-glucose] + O
refractive index, [1]
Conditions	w1 = 0.01	w1 = 0.05	w1 = 0.1	w1 = 0.15	w1 = 0.2	w1 = 0.3	w1 = 0.4	w1 = 0.5
293.15 K	1.336	1.3412	1.3481	1.3553	1.3623	1.3775	1.3947	1.4119
298.15 K	1.3355	1.3406	1.3475	1.3548	1.3617	1.3768	1.3939	1.4106
303.15 K	1.3349	1.3401	1.3469	1.3542	1.361	1.3763	1.3932	1.41
308.15 K	1.3345	1.3395	1.3463	1.3535	1.3604	1.3757	1.3925	1.4098
313.15 K	1.3337	1.3388	1.3455	1.3527	1.3596	1.3747	1.3919	1.4086
318.15 K	1.3329	1.3379	1.3447	1.3519	1.3588	1.3739	1.3907	1.4073

O [water] + [Cl-].[K+]
[1], w2 = 0
Conditions	refractive index
293.15 K	1.3335
298.15 K	1.333
303.15 K	1.3323
308.15 K	1.332
313.15 K	1.3316
318.15 K	1.3312

O [water]
[2]
Conditions	refractive index
293.15 K	1.3335
298.15 K	1.333
303.15 K	1.3323
308.15 K	1.332
313.15 K	1.3316
318.15 K	1.3312

[Ca+2].[Cl-].[Cl-] [calcium chloride] + O
refractive index, [1]
Conditions	293.15 K	298.15 K	303.15 K	308.15 K	313.15 K	318.15 K
w1 = 0.01	1.3356	1.3353	1.3349	1.3344	1.3339	1.3331
w1 = 0.05	1.3442	1.3437	1.3431	1.3426	1.342	1.3414
w1 = 0.1	1.3568	1.3561	1.3555	1.3551	1.3546	1.3539
w1 = 0.15	1.3689	1.3686	1.368	1.3671	1.3667	1.3662
w1 = 0.2	1.3818	1.3814	1.3807	1.3802	1.3795	1.3789
w1 = 0.25	1.3945	1.3943	1.394	1.3933	1.3926	1.392

O [water] + [Ca+2].[Cl-].[Cl-]
[1], w2 = 0
Conditions	refractive index
293.15 K	1.3335
298.15 K	1.333
303.15 K	1.3323
308.15 K	1.332
313.15 K	1.3316
318.15 K	1.3312
